Assay [1] concerns NCI-H358 cells (K-Ras G12C). The assay can be described thus: Potency assay: pERK in NCI-H358 cells. Type of assay: cell-based, human. The note with it: Homo sapiens, NCI-H358; H358 KRAS G12C; read-out: pERK EC50. An outline of the steps:
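pERK decrease read by AlphaLISA SureFire p-ERK1/2 or In-Cell Western after 4 h compound exposure at 37 °C, 5% CO2.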

For the next assay, the target named is NRAS Q61R (Homo sapiens (Human), UniProt P01111+P62937, Q61R). The assay can be described thus: Ras-Raf (BRAF RBD) disruption / FRET / MOA assay, NRAS Q61R. Type of assay: biochemical. The note with it: NRAS Q61R; Ras-Raf disruption/FRET/MOA assay; read-out: IC50* NRAS Q61R FRET data. An outline of the steps: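 Compounds (30 μM top final, 10-point 3-fold dilutions) incubated 3 h at 25° C with nucleotide-loaded Ras, cyclophilin A and BRAF RBD. Detection with 10 nM anti-His Eu-W1024 and 50 nM anti-GST allophycocyanin over another 1.5 h. Lowered TR-FRET ratio relative to DMSO wells gives IC50.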
Sequence of NRAS Q61R (P01111 whole entry Q61R): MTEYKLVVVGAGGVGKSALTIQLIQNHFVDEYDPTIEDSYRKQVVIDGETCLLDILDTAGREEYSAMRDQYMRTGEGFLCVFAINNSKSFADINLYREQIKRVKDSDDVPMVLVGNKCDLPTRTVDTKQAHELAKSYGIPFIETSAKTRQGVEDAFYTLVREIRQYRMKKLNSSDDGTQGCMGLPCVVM
Sequence of NRAS Q61R (P62937 whole entry): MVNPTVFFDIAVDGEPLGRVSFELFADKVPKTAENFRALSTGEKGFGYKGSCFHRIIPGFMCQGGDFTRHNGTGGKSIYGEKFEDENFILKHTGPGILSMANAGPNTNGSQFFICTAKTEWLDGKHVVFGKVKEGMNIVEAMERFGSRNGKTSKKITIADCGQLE

A further assay addresses K-Ras G13C (Homo sapiens (Human), UniProt P01116+P62937, G13C). The assay is described as follows: Ras-Raf (BRAF RBD) disruption / FRET / MOA assay, KRAS G13C. Type of assay: biochemical. The note with it: KRAS G13C; Ras-Raf disruption/FRET/MOA assay; read-out: IC50* KRAS G13C FRET data. An outline of the steps:
(§1)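 A 10-point, 3-fold dilution series topping at 30 μM final was incubated 3 h at 25° C with the Ras/cyclophilin A/BRAF RBD mixture.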

In another assay the test system is NCI-H358 (K-Ras G12C). The assay can be described thus: CellTiter-Glo cell viability assay, NCI-H358. The settings on record: Homo sapiens, NCI-H358, 120 h, NCI-H358, 5-day treatment; class symbols; read-out: Additional H358 Cell Viability assay data (K-Ras G12C, IC50). It counts as cell-based, human. An outline of the steps: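 Cells seeded, compound added directly, 5-day exposure. Plates to RT ~30 min, CellTiter-Glo luminescence read. Normalized to DMSO avg (x100); 4-parameter logistic fit.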
Background: Cellular ATP, detected with luciferase, serves as a proxy for viable cell number.

The target of the next assay is KRAS WT (Homo sapiens (Human), UniProt P01116+P62937). The assay is described as follows: Ras-Raf (BRAF RBD) disruption / FRET / MOA assay, KRAS WT. Type of assay: biochemical. The note with it: read-out: IC50* KRAS WT FRET data. An outline of the steps: as §1
Sequence of KRAS WT (P01116-2 other isoform, or with tags, fused parts or gaps): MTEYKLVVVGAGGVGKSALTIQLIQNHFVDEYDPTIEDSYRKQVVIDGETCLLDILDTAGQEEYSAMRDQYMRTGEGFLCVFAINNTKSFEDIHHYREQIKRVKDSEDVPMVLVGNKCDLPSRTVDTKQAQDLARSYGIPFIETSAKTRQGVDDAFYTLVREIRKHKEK
Sequence of KRAS WT (P62937 whole entry): as the sequence (P62937 whole entry) above

Sequence of K-Ras G13C (P01116-2 other isoform, or with tags, fused parts or gaps G13C): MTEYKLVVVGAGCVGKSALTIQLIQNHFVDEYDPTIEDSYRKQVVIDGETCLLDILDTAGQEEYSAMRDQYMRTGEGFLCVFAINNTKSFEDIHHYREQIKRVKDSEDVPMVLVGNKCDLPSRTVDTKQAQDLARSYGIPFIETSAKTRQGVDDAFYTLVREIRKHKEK
Sequence of K-Ras G13C (P62937 whole entry): as the sequence (P62937 whole entry) above

Turning to `CCn1c(-c2cccnc2[C@H](C)OC)c2c3cc(ccc31)-c1cccc(c1)C[C@H](NC(=O)[C@H](C(C)C)N1CC[C@]3(CCN(C(=O)C#C[C@@]4(N(C)C)CCOC4)C3)C1=O)C(=O)N1CCC[C@H](N1)C(=O)OCC(C)(C)C2` (atropisomer, axis not shown) [Example A560], in assay [1], the EC50 is below 5000 nM. The IC50 on NRAS Q61R was 1000 to 10000 nM; on K-Ras G13C, 100 to 1000 nM; in the assay on NCI-H358 (K-Ras G12C), below 10 nM; at KRAS WT, 1000 to 10000 nM.
`C=CC(=O)N1C[C@@H]2CN(C(=O)N(C)[C@H](C(=O)N[C@H]3Cc4nc(cs4)-c4ccc5c(c4)c(c(-c4cccnc4[C@H](C)OC)n5CC)CC(C)(C)COC(=O)[C@@H]4CCCN(N4)C3=O)C(C)C)[C@@H]2C1` (atropisomer, axis not shown) [Example A561]: in assay [1], the EC50 is below 5000 nM. Besides, the IC50 was 1000 to 10000 nM at NRAS Q61R, 100 to 1000 nM at K-Ras G13C, 100 to 1000 nM in the assay with NCI-H358 (K-Ras G12C) and 1000 to 10000 nM on KRAS WT.
With `C=CC(=O)N1CCO[C@H]2CN(C(=O)N(C)[C@H](C(=O)N[C@H]3CC4=NN=C(O4)c4ccc5c(c4)c(c(-c4cccnc4[C@H](C)OC)n5CC(F)(F)F)CC(C)(C)COC(=O)[C@@H]4CCCN(N4)C3=O)C(C)C)C[C@H]21` (atropisomer, axis not shown) [Example A576], the EC50 in assay [1] was below 5000 nM. In addition, the IC50 on NRAS Q61R is above 10000 nM; at K-Ras G13C, 100 to 1000 nM; in the assay with NCI-H358 (K-Ras G12C), 100 to 1000 nM; on KRAS WT, 1000 to 10000 nM.
With `CO[C@@H](C)c1ncccc1-c1c2c3cc(ccc3n1CC(F)(F)F)-c1nc(co1)C[C@H](NC(=O)[C@H](C(C)C)N(C)C(=O)C1(F)CCN(C(=O)C#CC(C)(C)N(C)C)CC1)C(=O)N1CCC[C@H](N1)C(=O)OCC(C)(C)C2` (atropisomer, axis not shown) [Example A578], in assay [1], the EC50 is below 5000 nM. In addition, the IC50 at NRAS Q61R is 100 to 1000 nM; at K-Ras G13C, 10 to 100 nM; with NCI-H358 (K-Ras G12C), below 10 nM; on KRAS WT it was 100 to 1000 nM.
Consider `CCn1c(-c2cccnc2[C@H](C)OC)c2c3cc(ccc31)-c1cccc(c1)C[C@H](NC(=O)[C@@H](CO[C@H]1CCN(C(=O)C#CC(C)(C)N(C)C)C1)C(C)C)C(=O)N1CCC[C@H](N1)C(=O)OCC(C)(C)C2` (atropisomer, axis not shown) [Example A585], for which the EC50 in assay [1] is below 5000 nM. The IC50 on NRAS Q61R was above 10000 nM; on K-Ras G13C, 1000 to 10000 nM; with NCI-H358 (K-Ras G12C) it was below 10 nM; at KRAS WT it was 1000 to 10000 nM.
`CCn1c(-c2cccnc2[C@H](C)OC)c2c3cc(ccc31)C1=CCCN(C1)C[C@H](NC(=O)[C@H](C(C)C)N(C)C(=O)C1(F)CCN(C(=O)C#CC(C)(C)N(C)C)CC1)C(=O)N1CCC[C@H](N1)C(=O)OCC(C)(C)C2` (atropisomer, axis not shown) [Example A591]: the EC50 in assay [1] is below 5000 nM. The IC50 at NRAS Q61R is 100 to 1000 nM; on K-Ras G13C, 10 to 100 nM; in the assay on NCI-H358 (K-Ras G12C), below 10 nM; at KRAS WT, 100 to 1000 nM.
Turning to `CCn1c(-c2cccnc2[C@H](C)OC)c2c3cc(ccc31)-c1cccc(c1)C[C@H](NC(=O)[C@@H](COC1CN(C(=O)C#CC(C)(C)N(C)C(C)C)C1)C(C)C)C(=O)N1CCC[C@H](N1)C(=O)OCC(C)(C)C2` (atropisomer, axis not shown) [Example A599], in assay [1], the EC50 is below 5000 nM. For the same compound, the IC50 on NRAS Q61R was above 10000 nM; on K-Ras G13C, 1000 to 10000 nM; in the assay with NCI-H358 (K-Ras G12C), below 10 nM; at KRAS WT it was above 10000 nM.
Consider `CO[C@@H](C)c1ncccc1-c1c2c3cc(ccc3n1CC(F)(F)F)-c1cccc(c1)CN(NC(=O)[C@@H](COC1CN(C(=O)C#CC(C)(C)N(C)C)C1)C(C)C)C(=O)N1CCC[C@H](N1)C(=O)OCC(C)(C)C2` (atropisomer, axis not shown) [Example A601], for which the EC50 in assay [1] was below 5000 nM. Moreover, the IC50 is 1000 to 10000 nM at NRAS Q61R, 100 to 1000 nM at K-Ras G13C, below 10 nM with NCI-H358 (K-Ras G12C) and 1000 to 10000 nM at KRAS WT.

Usually EC50 stands for the concentration needed to bring the measured effect to its halfway point. In general, IC50 refers to the point on the concentration scale where inhibition reaches its midpoint.

The record behind these values is US11566007B2, “Ras inhibitors” (Revolution Medicines, Inc., priority 2019, dated 2023).
